In one data set the target is T1, Kir2.1 (Homo sapiens, UniProt P63252).
T1 construct: host or cells: hepatocytes of wildtype mice in vivo, AAV8 with TBG promoter
T1 sequence (P63252 1-427): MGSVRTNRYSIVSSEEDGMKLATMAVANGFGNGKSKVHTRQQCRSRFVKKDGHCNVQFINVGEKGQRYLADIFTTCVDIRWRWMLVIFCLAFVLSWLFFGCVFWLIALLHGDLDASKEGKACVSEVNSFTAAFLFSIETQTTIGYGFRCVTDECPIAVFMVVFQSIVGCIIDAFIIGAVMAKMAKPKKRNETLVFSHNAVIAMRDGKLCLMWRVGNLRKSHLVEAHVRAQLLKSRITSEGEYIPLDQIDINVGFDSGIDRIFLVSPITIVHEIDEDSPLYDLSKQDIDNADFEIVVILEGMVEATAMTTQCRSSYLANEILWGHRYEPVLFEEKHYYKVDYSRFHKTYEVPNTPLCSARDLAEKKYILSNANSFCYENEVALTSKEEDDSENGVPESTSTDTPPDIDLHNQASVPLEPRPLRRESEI
The data set is described as follows: Barium induced change in hepatocyte membrane potential in Kir2.1 and eGFP expressing mice. It is filed as in vivo, mouse. As to conditions: 50 μM bath application.

The next data set concerns Na+/K+ ATPase. The data set is described as follows: liver slice GABA release with Na+/K+ ATPase inhibitor. It counts as cell-based, mouse. As to conditions: 1 mM, bath application. The text has this:
Two liver slices were taken from each mouse.

Data set [1] concerns PSEM89S ligand-gated depolarizing channel. The data set is described as follows: PSEM89S ligand IP in mice with cre-dependent hepatic depolarizing channel: serum insulin, glucose. As to conditions: 30 mg/kg IP. It counts as in vivo, mouse. The text has this: (§1) The depolarizing channel (PSAM^L141F,Y115F-5 HT3HC), originally engineered by Dr. Scott Sternsons group, was made by mutating the acetylcholine binding domain of a chimeric channel that included the binding domain of the α7 nicotinic acetylcholine receptor and the ion pore domain of the serotonin receptor 3a. The ligand binding domain mutations (Leu^141→Phe and Tyr^115→Phe) limited the agonist action of acetylcholine and allowed for stimulation by a pharmacologically selective effector molecule PSEM89S. The exogenous ligand PSEM89S opens the serotonin receptor 3a channel allowing Na^+, K^+, and Ca^++ passage into the cell and membrane depolarization. AAV8 viral vectors were used for plasmid delivery in all the reported studies and were synthesized by the Penn Vector Core. Hepatic specific expression of the depolarizing channel was achieved through two different methods. First, expression of a cre-recombinase dependent depolarizing channel was driven by a globally expressed CAG promoter. LoxP sites limited expression to cre-recombinase expressing tissue, and tail vein injection of 1×10^10 viral genome copies established hepatocyte expression in albumin-cre but not wildtype mice. Second, a separate AAV8 viral vector, induced hepatic specific expression of the same depolarizing channel by driving expression using the thyroxine binding globulin (TBG) promoter. Tail vein injection of 1×10^11 viral genome copies established hepatocyte expression (FIG. 18C). The thyroxine binding globulin promoter also drove hepatic expression of the hyperpolarizing, inward-rectifier K^+ channel, Kir2.1. Tail vein injection of 1×10^11 viral genome copies established hepatocyte specific expression (FIG. 19A). To confirm channel expression and tissue specificity, all viral vector plasmids encoded for enhanced green fluorescent protein (eGFP).
All studies in virus injected mice were conducted at least 5 days post virus injection to allow for maximal channel expression. Individually housed mice were intraperitoneally injected with the ligand for the depolarizing channel (PSEM89S; 30 mg/kg; 0.1 mL/10 g body weight) or PBS (0.1 mL/10 g body weight).
Studies conducted in mice injected with the cre-dependent depolarizing channel virus took place at 8 am. […]
(§2) Within 2 hours of collection, blood was left to clot at room temperature for 20 minutes. […] Serum glucose was analyzed by colorimetric assay (Cat. #G7519, Pointe Scientific Inc., Canton Mich.). Serum insulin was analyzed by enzyme-linked immunosorbent assay (ELISA; Cat. #80-INSMSU-E01,E10, Alpco, Salem, N.H.). Serum glucagon was analyzed by enzyme-linked immunosorbent assay (ELISA; Cat. #10-1281-01, Mercodia, Uppsala, Sweden) from tail vein blood collected at 9 am from fed mice (Vagotomy study) or after a 4 hour fast at 1 PM (Kir2.1 study).

Data set [2] shares this test system. It is filed as in vivo, mouse.
Excerpt: as §1, with “Tail vein injection of 1×10^11 viral genome copies established hepatocyte specific expression (FIG. 19A). To confirm channel expression and tissue specificity, all viral vector plasmids encoded for enhanced green fluorescent protein (eGFP).” left out
Simultaneous in vivo recordings were performed of hepatocyte membrane potential and hepatic afferent vagal nerve firing activity in anesthetized (isoflurane) mice to directly assess the effect of hepatocyte depolarization on hepatic afferent vagal nerve activity. […] After placement and sealing of the hook electrode, 45-60 minutes of basal nerve activity was monitored/recorded with pClamp software (version 10.2; Molecular Devices) until nerve activity stabilized, after which, treatments began. […]

Data set [3] has the same test system. The data set is described as follows: PSEM89S ligand IP before oral glucose in mice with TBG promoter driven depolarizing channel. It counts as in vivo, mouse. To be noted: TBG channel expressing mice.
Excerpt: as §1, with “The thyroxine binding globulin promoter also drove hepatic expression of the hyperpolarizing, inward-rectifier K^+ channel, Kir2.1. Tail vein injection of 1×10^11 viral genome copies established hepatocyte specific expression (FIG. 19A). To confirm channel expression and tissue specificity, all viral vector plasmids encoded for enhanced green fluorescent protein (eGFP).” left out
as §2

Data set [4] concerns high fat diet-induced obese mice. The data set is described as follows: GABA-T inhibitors (8 mg/day IP) in HFD-induced obese mice: body weight, serum insulin/glucose/glucagon, OGTT, ITT. It counts as in vivo, mouse. The procedure: (§3) All animal studies were conducted using male wildtype C57BL/6J mice purchased from Jackson Laboratories or bred in-house (Bar Harbor, Me.). Mice were kept on a 14-hour light/10-hour dark schedule and housed 3-5 mice per cage until 1 week prior to study initiation, at which point animals were individually housed. Studies were conducted in lean chow fed mice (7013 NIH-31, Teklad WI, 3.1 kcal/g, 18% kcal from fat, 59% kcal from carbohydrate, 23% kcal from protein) at 12-16 weeks of age. Studies in diet-induced obese mice dosed intraperitoneally with GABA transaminase inhibitors, mice treated with ethanolamine-O-sulfate in their drinking water, and mice treated with GABA-T targeted or scramble control antisense oligonucleotides (ASO) were performed after 8-10 weeks on a high fat diet (TD 06414, Teklad WI, 5.1 kcal/g, 60.3% kcal from fat, 21.3% kcal from carbohydrate, 18.4% kcal from protein; 20-26 weeks of age). For ASO studies, mice were stratified by body weight and assigned to an injection treatment (control or GABA-T). Studies in obese vagotomy and sham mice were performed after 9 weeks of high fat diet feeding. Unless fasted, mice had ad libitum access to food and water. All studies were approved by The University of Arizona Institutional Animal Care and Use Committee.
(§4) Wildtype lean and obese mice were randomly divided into treatment groups and dosed daily with 8 mg of ethanolamine-O-sulfate (EOS; Sigma-Aldrich, St. Louis, Mo.), vigabatrin (United States Pharmacopeia, Rockville, Md.) or PBS. Obese sham and vagotomy mice were dosed daily with 8 mg of EOS. In all cases, basal bleeds were taken prior to initiation of an ITT. Lean mice received treatment by oral gavage (0.3 mL/mouse) while obese mice were treated by intraperitoneal injection (0.3 mL/mouse). Pre-treatment studies were conducted in the week immediately prior to beginning drug administration. Daily doses took place at 9 am each day and oral glucose tolerance tests (OGTT) and insulin tolerance tests (ITT) were performed on the third and fourth days of treatment in lean mice, respectively. In wildtype obese mice, OGTT and ITT were performed on the fourth day of treatment in separate cohorts. On the fifth day of treatment, 2DG clearance studies were performed. In sham/vagotomy mice, OGTT and ITT were performed on the fourth and fifth day of treatment, respectively. After a 2-week washout period without treatment injection, a basal bleed and bleed 15 minutes after an oral glucose gavage ([…]) to determine oral glucose stimulated insulin secretion were performed.
(§5) Oral glucose (2.5 g/kg; 0.1 mL/10 g body weight; Chem-Impex Int'l Inc., Wood Dale, Ill.) was given to 4 hour fasted individually housed mice. All glucose tolerance tests began at […] and glucose was measured in whole blood, collected from the tail vein, by glucometer (Manufacture #D2ASCCONKIT, Bayer, Leverkusen, Germany) at 0, 15, 30, 60, 90, and 120 minutes after glucose gavage. Blood for serum insulin (oral glucose stimulated insulin secretion; OGSIS) and glucose determination was collected from the tail vein 15 minutes following glucose administration.
(§6) Intraperitoneal insulin (0.5 U/kg; 0.1 mL/10 g body weight; Sigma Aldrich, St. Louis, Mo.) was given to 4 hour fasted individually housed mice. All insulin tolerance tests began at […] and glucose was measured in whole blood, collected from the tail vein, by glucometer (Manufacture #D2ASCCONKIT, Bayer, Leverkusen, Germany) at 0, 30, 60, 90, and 120 minutes after insulin injection.
(§7) Within 2 hours of collection, blood was left to clot at room temperature for 20 minutes. Thereafter, the blood was centrifuged at 3,000×g for 30 minutes at 4° C. and serum was collected. Serum was stored at −80° C. until metabolite and hormone analyses. A colorimetric assay was used to analyze serum glucose (Cat. #G7519, Pointe Scientific Inc., Canton Mich.). Serum insulin was analyzed by enzyme-linked immunosorbent assay (ELISA; Cat. #80-INSMSU-E01,E10, Alpco, Salem, N.H.). […]

In another data set the test system is lean mice. The data set is described as follows: GABA-T inhibitors (8 mg/day oral gavage) in lean mice: glucose homeostasis. It counts as in vivo, mouse. As to conditions: 8 mg/day. The procedure:
as §3, §4, §5, §6, §7

In data set [5] the test system is lean mice and obese control or GABA-T ASO treated mice. The data set is described as follows: leptin sensitivity (single 6 am leptin injection): food intake, body weight. It counts as in vivo, mouse. Here is the method:
Lean mice or diet-induced obese control or GABA-T targeted ASO treated mice received an intraperitoneal injection of phosphate buffered saline (PBS; 0.1 mL/10 g body weight) on day 1 and leptin (2 mg/kg; 0.1 mL/10 g body weight; CAT#498-OB, R&D Systems, Minneapolis, Minn.) on day 2 at 6 am. Mice were not fasted before injections. Food and body weight were measured every day at 6 am and 6 pm.

[6] abbreviates: albumin-cre channel expressing mice.
The mark [7] stands for this setting: 30 mg/kg IP 10 minutes before oral glucose 2.5 g/kg.
Where [8] appears, read: 8 mg/day IP, four days, relative to pre-treatment.
[9] abbreviates: chow fed mice, single 6AM injection.

As for `[Ba+2]` [Ba2+, Barium], the depolarization of hepatocytes on Kir2.1 (Kir2.1 expressing mice) worked out at 6.86±1.54 mV. The “change in hepatocyte membrane potential” value on Kir2.1 (control eGFP expressing mice) was −0.62±1.86 mV.

For the compound `C[C@@H]1O[C@@H](O[C@H]2C[C@@H](O)[C@]3(CO)[C@H]4[C@H](O)C[C@]5(C)[C@@H](C6=CC(=O)OC6)CC[C@]5(O)[C@@H]4CC[C@]3(O)C2)[C@H](O)[C@H](O)[C@H]1O` [Ouabain], the “increase of liver slice GABA release (μmol/mg DNA)” value in the data set with Na+/K+ ATPase is “more than 40%”.

As for `COc1ccc(OC)c(C(=O)N[C@@H]2CN3CCC2CC3)c1.O=C(O)C(F)(F)F` [PSEM89S ligand], in data set [1] (setting [6]), the serum glucose entry is “decreased” and the serum insulin result is reported as “more than doubled”. Besides, the “glucose:insulin ratio” value in data set [1] (albumin-cre mice) was “decreased”. In addition, the “serum insulin, glucose, or glucose:insulin ratio” value in data set [1] (wildtype mice) was “did not alter”. Further, the HVAN firing activity entry in data set [2] (30 μM bath application, albumin-cre channel expressing mice) is reported as “decreased”. In addition, in data set [2] (mouse, in vivo), the “hepatocyte depolarization at 10 minutes” value is on record as 17.0±5.4 mV and the maximal hepatocyte depolarization is 28±5.4 mV. Besides, in data set [3] (setting [7]), the “glucose:insulin ratio” value is listed as “lowered” and the serum insulin result was “elevated”. The “rise in serum glucose following oral glucose gavage” value in data set [3] (30 mg/kg IP) is reported as “did not affect”.

For the compound `C=CC(N)CCC(=O)O` (stereo not shown) [vigabatrin], in data set [4] (setting [8]), the “glucose:insulin ratio” value is on record as “increased”, the serum glucose result is reported as “decreased” and the serum insulin result is “decreased”. For the same compound, the body weight entry in data set [4] (8 mg/day IP, through 5 days, vs saline injected mice) is given as “remained similar”. The “glucose stimulated serum insulin” value in data set [4] (treatment day 4, relative to pre-treatment) is listed as “decreased”. In data set [4] (two-weeks washout), the “glucose stimulated serum insulin after washout” value is listed as “markedly increased”; the “serum insulin and glucose:insulin ratio after washout” value was “return of serum insulin and the glucose:insulin ratio to pre-treatment levels”. Moreover, the “insulin sensitivity assessed by insulin tolerance test (ITT)” value in data set [4] (within 4 days of initiating treatment) was “improved”. Moreover, in the data set on lean mice, the glucose tolerance entry was “no effect”, the insulin sensitivity result was “no effect” and the serum insulin concentrations entry is “no effect”.

As to “leptin: anorexigenic hormone leptin (R&D Systems)”, in data set [5] (setting [9]), the body weight result is given as “without affecting”; the “light cycle and 24-hour food intake” value was “decreased”. Further, in data set [5] (control or GABA-T ASO obese mice, 2 mg/kg), the relative weight change entry is listed as “not affected”. In data set [5] (obese mice on either ASO treatment, 2 mg/kg single 6AM injection, any timepoint), the food intake result was “did not affect”.

The values above are taken from US20230128194A1, “METHODS AND COMPOSITIONS TO ALTER HEPATIC GABA RELEASE TO TREAT OBESITY-RELATED CONDITIONS” (ARIZONA BOARD OF REGENTS ON BEHALF OF THE UNIVERSITY OF …, priority 2017, published 2023).
